This is an account of results in patent US20110110924A1, “Resistin as a Marker and Therapeutic Target for Cardiovascular Disease” (priority 2004, published 2011).

Experiment [1] concerns resistin mRNA in primary human macrophages. As to the kind of experiment: Resistin mRNA expression in primary human macrophages (real time PCR). The format is cell-based. The settings on record: for effect on induction of resistin by LPS: pretreated 2 h, then LPS (1 ng/ml) 24 h. How it is done:
(§1) Peripheral blood mononuclear cells were isolated from whole blood of healthy donors following apheresis and elutriation. […] Cells were plated in 24 well plates at a density of 10^6 cells per well, allowed to adhere for 4 hours, then washed with Dulbecco's Modified Eagles Medium (DMEM) and further cultured in 10% FBS in DMEM supplemented with 5 ng/ml GM-CSF (Sigma) to promote macrophage differentiation. All experiments were performed after overnight equilibration with macrophage serum free medium (Gibco/Invitrogen) supplemented with 5 ng/ml GM-CSF. […] Adenovirus expressing activated IKK in pAD-easy™ vector with GFP and control vector were a generous gift from Steven Shoelson.
RNA was isolated using RNeasy® Mini Kit (Qiagen), then subjected to DNAse digestion followed by reverse transcription (Invitrogen). mRNA transcripts were quantified by the dual-labeled fluorogenic probe method for real time PCR, using a Prism® 7900 thermal cycler and sequence detector (Perkin Elmer/ABI). Real time PCR was performed by using Taqman® Universal Polymerase Master Mix (Applied Biosystems). The primers and probes used in the real-time PCR were the following: […]
The cycle number at which the transcripts of the gene of interest was detectable (CT) was normalized to the cycle number of 36B4 detection, referred to as δ CT. The fold change of the gene of interest expression relative to the vehicle treated group was expressed as 2^− δδ^CT, in which δδ CT equals the δCT of the compound treated group minus δCT of the chosen control group, which was normalized to 1.
For orientation: In qPCR the cycle at which signal appears reflects the starting amount.

The subject of experiment [2] is TNFα secretion by human macrophages. As to the kind of experiment: TNFα secretion into medium by primary human macrophages. It is filed as cell-based. The following applies: LPS 1 μg/ml, time course. How it is done: (§2) Peripheral blood mononuclear cells were isolated from whole blood of healthy donors following apheresis and elutriation. Greater than 90% of these monocytes expressed CD14 and HLA-DR. Cells were plated in 24 well plates at a density of 10^6 cells per well, allowed to adhere for 4 hours, then washed with Dulbecco's Modified Eagles Medium (DMEM) and further cultured in 10% FBS in DMEM supplemented with 5 ng/ml GM-CSF (Sigma) to promote macrophage differentiation. All experiments were performed after overnight equilibration with macrophage serum free medium (Gibco/Invitrogen) supplemented with 5 ng/ml GM-CSF. Cells were treated as indicated with LPS (Sigma), aspirin (Sigma), SN50 and control peptide (Biomol), MG132, PD98059, SB20358 (Calbiochem), and TNFα (R&D Systems). Neutralizing antibodies to TNFα, IL-6, and anti-IL-6α, as well as control IgG were obtained from R&D Systems. Adenovirus expressing activated IKK in pAD-easy™ vector with GFP and control vector were a generous gift from Steven Shoelson.

Experiment [3] relates to mouse resistin in mouse peritoneal macrophages. The experiment is described as follows: Resistin expression in activated mouse peritoneal macrophages. The format is cell-based. The following applies: macrophages harvested after thioglycolate treatment; data not shown.
Experiment [4] deals with TNFα mRNA in primary human macrophages. The experiment is described as follows: TNFα mRNA expression in primary human macrophages (real time PCR). The format is cell-based. The settings on record: LPS 1 μg/ml. How it is done:
as §2, with “Neutralizing antibodies to TNFα, IL-6, and anti-IL-6α, as well as control IgG were obtained from R&D Systems. Adenovirus expressing activated IKK in pAD-easy™ vector with GFP and control vector were a generous gift from Steven Shoelson.” left out
RNA was isolated using RNeasy® Mini Kit (Qiagen), then subjected to DNAse digestion followed by reverse transcription (Invitrogen). mRNA transcripts were quantified by the dual-labeled fluorogenic probe method for real time PCR, using a Prism® 7900 thermal cycler and sequence detector (Perkin Elmer/ABI). […]
Primer and probe for TNFα was obtained from ABI. […] The fold change of the gene of interest expression relative to the vehicle treated group was expressed as 2^− δδ^CT, in which δδ CT equals the δCT of the compound treated group minus δCT of the chosen control group, which was normalized to 1.

Experiment [5] deals with sTNFR2 secretion by human macrophages. As to the kind of experiment: sTNFR2 secretion into medium by primary human macrophages. The format is cell-based. The following applies: LPS 1 μg/ml, time course. How it is done:
Peripheral blood mononuclear cells were isolated from whole blood of healthy donors following apheresis and elutriation. Greater than 90% of these monocytes expressed CD14 and HLA-DR. Cells were plated in 24 well plates at a density of 10^6 cells per well, allowed to adhere for 4 hours, then washed with Dulbecco's Modified Eagles Medium (DMEM) and further cultured in 10% FBS in DMEM supplemented with 5 ng/ml GM-CSF (Sigma) to promote macrophage differentiation. All experiments were performed after overnight equilibration with macrophage serum free medium (Gibco/Invitrogen) supplemented with 5 ng/ml GM-CSF. […]
Resistin concentrations, in cell media and human plasma, were assessed with a commercially available ELISA (Linco) and normalized to cell protein. […] Direct comparison of standard curves generated by the Linco kit with another commercially available resistin ELISA (Biovendor) yielded high correlation (rho=0.99, p<0.001), except that the Biovendor results were approximately 30% lower than those determined with the Linco assay. […] Resistin levels in 40 plasma samples were measured using both Linco and Biovendor ELISA kits, with moderate correlation (rho=0.66). Levels of soluble TNFα Receptor-2 were measured using a commercially available immunoassay (R&D Systems). […]

Experiment [6] concerns resistin protein secretion by human macrophages. As to the kind of experiment: Resistin protein secretion by primary human macrophages (ELISA). It is filed as cell-based. How it is done:
as §1
Resistin concentrations, in cell media and human plasma, were assessed with a commercially available ELISA (Linco) and normalized to cell protein.
Background: In an ELISA, binding on a coated surface is turned into a signal by an enzyme label.

A further experiment concerns plasma resistin. As to the kind of experiment: Human endotoxemia study, plasma resistin (ELISA). It is filed as in vivo. The settings on record: for increase of plasma resistin levels: healthy volunteers. As to the method: In another experiment, short term variation in plasma levels was examined by repeated sampling in young healthy control subjects of an additional clinical research study (Reilly et al, 2004c, and Lehrke, 2004, both cited above). Baseline variability in plasma resistin was assessed over a 24 hour period, in healthy young volunteers (n=6; three male and three females; age 24-34; BMI 24.3±1.07) without any past medical history and on no medications. These subjects were recruited to a 60-hour inpatient, General Clinical Research Center (GCRC) protocol designed to assess the metabolic responses to an inflammatory stimulus. Plasma resistin levels were determined in serial blood samples, collected at eight time points over 24 hours prior to the intravenous administration of human-research-grade endotoxin (3 ng/kg) as described in more detail in Reilly et al, 2004c, cited above.
Resistin concentrations, in cell media and human plasma, were assessed with a commercially available ELISA (Linco) and normalized to cell protein. Average correlation coefficient for standards using 4 parameter fit was 0.99. Intra-assay and inter-assay coefficients of variance were 4.7% and 9.1%, respectively. Direct comparison of standard curves generated by the Linco kit with another commercially available resistin ELISA (Biovendor) yielded high correlation (rho=0.99, p<0.001), except that the Biovendor results were approximately 30% lower than those determined with the Linco assay. This appeared to be related to the standards used for calibration. Discrepant absolute values among different assays, including the Biovendor assay, were recently described (Pfutzner 2003 cited above). Resistin levels in 40 plasma samples were measured using both Linco and Biovendor ELISA kits, with moderate correlation (rho=0.66). Levels of soluble TNFα Receptor-2 were measured using a commercially available immunoassay (R&D Systems). Intra-assay and inter assay coefficients of variance were 5.1% and 9.8%, respectively.
Healthy volunteers (n=6, 3 male, 3 female) aged 18-45 with BMI between 20 and 30 and on no medications were studied. The University of Pennsylvania Institutional Review Board approved the study protocol and all subjects gave written informed consent. Following screening and exclusion of subjects with any clinical or laboratory abnormalities, subjects were admitted to the General Clinical Research Center at the University of Pennsylvania for a 60 hour stay. Serial blood samples were collected for 24 hours prior to and 24 hours following the intravenous administration of human research grade endotoxin [obtained from NIH Clinical Center, reference endotoxin (CCRE) (lots 1 and 2; NIHCC PDS #67801)] at a dose of 3 ng/kg given at 6 AM. Plasma and whole blood RNA (PAX tube isolators, Qiagen) samples were isolated from blood, and stored under appropriate conditions for subsequent assays.

Where [7] appears, read: LPS 24 h treatment, increasing concentration.
The mark [8] stands for this setting: human macrophages in cell culture.

Peptide text beside a SMILES is read from it. * marks the point of attachment. Cbz = O=C(OCc1ccccc1)*

As to `CC(=O)Oc1ccccc1C(=O)O` [aspirin], in experiment [1] (pre-treated with aspirin 2 h, then LPS (1 μg/ml) and aspirin 24 h, dose-dependent), the “effect on endotoxin-induced resistin expression” value was “dramatically decreased”.

As for `C[S+]([O-])c1ccc(-c2nc(-c3ccc(F)cc3)c(-c3ccncc3)[nH]2)cc1` (stereo not drawn) [SB20358], in experiment [1] (2.5 μM), the “effect on induction of resistin by LPS” value is on record as “partially blocked”.

lipopolysaccharide [LPS]: the “maximal secreted protein level: TNFα” value in experiment [2] came to 207.2 ng/mL/mg. Besides, in experiment [3], the “mouse resistin expression after LPS” value is recorded as “did not express detectable levels”. Further, in experiment [4], the “time at which TNFα gene expression was detectable after LPS” value stood at 2 h and the “time of peak TNFα gene expression after LPS exposure” value came to 6 h. Further, the “time of peak resistin gene expression after LPS” value in experiment [1] (LPS 1 μg/ml) stood at 24 h. In addition, the “effect on resistin gene expression” value in experiment [1] (setting [7]) is reported as “dramatic, dose-responsive increase”. Besides, the “time of induction of resistin mRNA after LPS exposure” value in experiment [1] (setting [8]) was 6 to 24 h. The “maximal secreted protein level: sTNFR2” value in experiment [5] was found to be 39.3 ng/mL/mg. Also, the “maximal secreted protein level: resistin” value in experiment [6] (LPS 1 μg/ml, time course, normalized to cell protein) was 21.9 ng/mL/mg. Further, in experiment [6] (setting [7]), the “effect on resistin protein secretion into the medium” value is on record as “increase in resistin protein secretion”. The “time of induction of resistin protein after LPS exposure” value in experiment [6] (setting [8]) is 6 to 24 h. The “increase of resistin serum/plasma levels” value in the experiment with plasma resistin (LPS in humans (FIG. 6A)) was “over 400%”. Also, the “putative maximum increase in resistin due to inflammation” value in the experiment on plasma resistin (endotoxin induction, Examples 6-12) was in the range of 18 to 19 ng/mL. Besides, the “increase of plasma resistin levels” value with plasma resistin (intravenous LPS 3 ng/kg, listed as endotoxemia) was more than 7 fold. Besides, in the experiment with plasma resistin (intravenous LPS 3 ng/kg, listed as endotoxin), the “increase of plasma resistin levels” value is 3-5 fold. In addition, the “time of peak resistin levels after LPS administration” value with plasma resistin (intravenous LPS 3 ng/kg, six normal volunteers) was 8 to 16 h.

`COc1cccc(-c2cc(=O)c3ccccc3o2)c1N` [PD98059]: the “effect on induction of resistin by LPS” value in experiment [1] (50 μM) was “partially blocked”.

IL-6: cytokine interleukin-6: the effect on resistin result in experiment [1] (data not shown and Kaser et al, 2003) is given as “induces resistin modestly”.

For `CC(C)C[C@@H](C=O)NC(=O)[C@H](CC(C)C)NC(=O)[C@H](CC(C)C)NC(=O)OCc1ccccc1` [MG132] (Cbz-Leu-Leu-Leu-aldehyde), the “effect on endotoxin-induced activation of resistin expression” value in experiment [1] (MG132 treatment of macrophages, data not shown) is reported as “abrogated”.
